Measured values reported in ChEMBL document CHEMBL1141730, “Destruxin-A4 chlorohydrin, a novel destruxin from fungus OS-F68576: isolation, structure determination, and biological activity as an inducer of erythropoietin” (1998).
Starred links: 1 amine or outer side, 2 acyl side, 3 side chain; linkers in the order of their positions; H or OH if unused. Non-standard residues stand in square brackets, D forms with d. Residues, ends and D or L forms follow the SMILES beside them. Pentanoyl(2-O,4-OH,5-Cl) = O=C(O)C(O)CC(O)CCl; dLac(3-vinyl) = C=CC[C@@H](O)C(=O)O; NMeI = CC[C@H](C)[C@H](NC)C(=O)O; X1 = C=CC[C@H](O[*:1])C(=O)[*:2]; Hica(2S) = CC(C)C[C@H](O)C(=O)O; dHica = CC(C)C[C@@H](O)C(=O)O; NMeV = CN[C@H](C(=O)O)C(C)C; NMeA = CN[C@@H](C)C(=O)O; βAla = NCCC(=O)O

Assays:
Hep 3B2 [1] = test: Induction of erythropoietin gene expression in human Hep3B cells over expressing human EPO assessed as maximal transcription induction ratio at 1.3 uM by luciferase reporter gene assay; assay type: functional
Hep 3B2 [2] = test: Induction of erythropoietin secretion in human Hep3B cells expressing human EPO at 10 uM by ELISA; assay type: functional
Hep 3B2 [3] = test: Induction of erythropoietin gene expression in human Hep3B cells over expressing human EPO assessed as drug level required to produce 5 fold transcription induction ratio; assay type: functional
Hep 3B2 [4] = test: Cytotoxicity against human Hep3B cells at =< 20 uM; assay type: functional, cell-based
Hep 3B2 [5] = test: Induction of erythropoietin gene expression in human Hep3B cells over expressing human EPO assessed as maximal transcription induction ratio at 5 uM by luciferase reporter gene assay; assay type: functional
Hep 3B2 [6] = test: Induction of erythropoietin gene expression in human Hep3B cells over expressing human EPO assessed as maximal transcription induction ratio at 10 uM by luciferase reporter gene assay; assay type: functional
Hep 3B2 [7] = test: Induction of erythropoietin gene expression in human Hep3B cells over expressing human EPO assessed as maximal transcription induction ratio at 2.1 uM by luciferase reporter gene assay; assay type: functional
Hep 3B2 [8] = test: Induction of erythropoietin gene expression in human Hep3B cells over expressing human EPO assessed as maximal transcription induction ratio at 20 uM by luciferase reporter gene assay; assay type: functional

SMILES	Ratio (Hep 3B2 [1])	Activity (Hep 3B2 [2]) [mU/ml]	Activity (Hep 3B2 [3]) [µM]	Activity (Hep 3B2 [4])	Ratio (Hep 3B2 [5])	Ratio (Hep 3B2 [6])	Ratio (Hep 3B2 [7])	Ratio (Hep 3B2 [8])
CC[C@H](C)[C@@H]1NC(=O)[C@@H]2CCCN2C(=O)C(CC(O)CCl)OC(=O)CCNC(=O)[C@H](C)N(C)C(=O)[C@H]([C@@H](C)CC)N(C)C1=O (stereo partly specified) (cyclo(I[NMeI][NMeA][βAla][Pentanoyl(2-O,4-OH,5-Cl)]P))	28	36	0.2	Not toxic				
C=CC[C@@H]1OC(=O)CCNC(=O)[C@H](C)N(C)C(=O)[C@H]([C@@H](C)CC)N(C)C(=O)[C@H]([C@@H](C)CC)NC(=O)[C@@H]2CCCN2C1=O [destruxin A4] (cyclo(I[NMeI][NMeA][βAla][X1]P))		35	0.9	Not toxic	23			
CC[C@H](C)[C@@H]1NC(=O)[C@@H]2CCCN2C(=O)[C@@H](CC(C)C)OC(=O)CCNC(=O)[C@H](C)N(C)C(=O)[C@H](C(C)C)N(C)C1=O (cyclo(I[NMeV][NMeA][βAla][dHica]P))		35	2	Not toxic		19		
CC[C@H](C)[C@@H]1NC(=O)[C@@H]2CCCN2C(=O)[C@H](CC(C)C)OC(=O)CCNC(=O)[C@H](C)N(C)C(=O)[C@H]([C@@H](C)CC)N(C)C1=O [homodestruxin B] (cyclo([Hica(2S)]PI[NMeI][NMeA][βAla]))		36	0.8	Not toxic	18			
C=CC[C@H]1OC(=O)CCNC(=O)[C@H](C)N(C)C(=O)[C@H](C(C)C)N(C)C(=O)[C@H]([C@@H](C)CC)NC(=O)[C@@H]2CCCN2C1=O (cyclo(I[NMeV][NMeA][βAla][dLac(3-vinyl)]P))		37	0.4	Not toxic			28	
CC[C@H](C)[C@H](NC(=O)[C@@H]1CCCN1C(O)CC(O)CCl)C(=O)N(C)[C@H](C(=O)N(C)[C@@H](C)C(=O)NCCC(=O)O)[C@@H](C)CC (stereo partly specified)								1
